Assay results reported in ChEMBL document CHEMBL3046274, “Toxicity of imidacloprid to developmental stages of Rhynchophorus ferrugineus (Curculionidae: Coleoptera): Laboratory and field tests” (Crop Prot, 2006).

Columns and labels:
Format in all cases: functional
[1] = test system: Rhynchophorus ferrugineus; test: Pesticidal activity against Rhynchophorus ferrugineus (red palm weevil) cocoon assessed as mortality at 20 ppm administered by dipping for 3 min measured at 90 hr post-treatment relative to control
[2] = test system: Rhynchophorus ferrugineus; test: Contact toxicity against Rhynchophorus ferrugineus (red palm weevil) adults assessed as time required for 100% mortality at 1.5 ml/l for 5 min
[3] = test system: Rhynchophorus ferrugineus; test: Pesticidal activity against Rhynchophorus ferrugineus (red palm weevil) larvae assessed as mortality at 2 ppm, po at 18 hr post-treatment relative to control
[4] = test system: Rhynchophorus ferrugineus; test: Pesticidal activity against Rhynchophorus ferrugineus (red palm weevil) larvae assessed as mortality at 1.5 ppm, po at 18 hr post-treatment relative to control
[5] = test system: Rhynchophorus ferrugineus; test: Pesticidal activity against Rhynchophorus ferrugineus (red palm weevil) cocoon assessed as mortality at 1 ppm administered by dipping for 3 min measured at 72 hr post-treatment relative to control
[6] = test system: Rhynchophorus ferrugineus; test: Pesticidal activity against Rhynchophorus ferrugineus (red palm weevil) larvae assessed as mortality at 2 ppm, po at 72 hr post-treatment relative to control
[7] = test system: Rhynchophorus ferrugineus; test: Pesticidal activity against Rhynchophorus ferrugineus (red palm weevil) cocoons assessed as time required for total mortality at 2.5 ml/l administered by dipping for 30 secs
[8] = test system: Rhynchophorus ferrugineus; test: Pesticidal activity against Rhynchophorus ferrugineus (red palm weevil) larvae assessed as mortality at 6 ppm, po at 18 hr post-treatment relative to control
[9] = test system: Rhynchophorus ferrugineus; test: Pesticidal activity against Rhynchophorus ferrugineus (red palm weevil) larvae assessed as mortality at 1.5 ppm, po at 24 hr post-treatment relative to control
[10] = test system: Rhynchophorus ferrugineus; test: Contact toxicity against Rhynchophorus ferrugineus (red palm weevil) adults assessed as time required for 50% mortality at 1.5 ml/l for 5 min
[11] = test system: Rhynchophorus ferrugineus; test: Pesticidal activity against adult Rhynchophorus ferrugineus (red palm weevil) assessed as mortality at 500 ppm administered topically at 36 hr post-treatment
[12] = test system: Rhynchophorus ferrugineus; test: Pesticidal activity against adult Rhynchophorus ferrugineus (red palm weevil) assessed as mortality at 1000 ppm administered topically at 36 hr post-treatment
[13] = test system: Rhynchophorus ferrugineus; test: Pesticidal activity against Rhynchophorus ferrugineus (red palm weevil) cocoons assessed as time required for total mortality at 3.5 ml/l administered by dipping for 30 secs
[14] = test system: Rhynchophorus ferrugineus; test: Pesticidal activity against Rhynchophorus ferrugineus (red palm weevil) cocoon assessed as mortality at 1 ppm administered by dipping for 3 min measured at 48 hr post-treatment relative to control
[15] = test system: Rhynchophorus ferrugineus; test: Contact toxicity against Rhynchophorus ferrugineus (red palm weevil) adults assessed as time required for 50% reversible knockdown at 2.5 ml/l for 2 min
[16] = test system: Rhynchophorus ferrugineus; test: Contact toxicity against Rhynchophorus ferrugineus (red palm weevil) adults assessed as time required for 100% mortality at 3.5 ml/l for 2 min
[17] = test system: Rhynchophorus ferrugineus; test: Pesticidal activity against adult Rhynchophorus ferrugineus (red palm weevil) assessed as mortality at 100 ppm administered topically at 18 hr post-treatment
[18] = test system: Rhynchophorus ferrugineus; test: Pesticidal activity against Rhynchophorus ferrugineus (red palm weevil) larvae assessed as mortality at 2 ppm, po at 90 hr post-treatment relative to control
[19] = test system: Rhynchophorus ferrugineus; test: Pesticidal activity against Rhynchophorus ferrugineus (red palm weevil) larvae assessed as mortality at 300 ppm administered topically at 72 hr post-treatment
[20] = test system: Rhynchophorus ferrugineus; test: Contact toxicity against Rhynchophorus ferrugineus (red palm weevil) adults assessed as time required for 100% reversible knockdown at 3.5 ml/l for 5 min
[21] = test system: Rhynchophorus ferrugineus; test: Pesticidal activity against Rhynchophorus ferrugineus (red palm weevil) larvae assessed as mortality at 300 ppm administered topically at 36 hr post-treatment
[22] = test system: Rhynchophorus ferrugineus; test: Pesticidal activity against adult Rhynchophorus ferrugineus (red palm weevil) assessed as mortality at 1.5 ppm, po at 90 hr post-treatment relative to control
[23] = test system: Rhynchophorus ferrugineus; test: Pesticidal activity against Rhynchophorus ferrugineus (red palm weevil) larvae assessed as mortality at 100 ppm administered topically at 36 hr post-treatment
[24] = test system: Rhynchophorus ferrugineus; test: Pesticidal activity against adult Rhynchophorus ferrugineus (red palm weevil) assessed as time required for 100% mortality at 3.5 ml/l administered topically
[25] = test system: Rhynchophorus ferrugineus; test: Pesticidal activity against Rhynchophorus ferrugineus (red palm weevil) cocoon assessed as mortality at 20 ppm administered by dipping for 3 min measured at 18 hr post-treatment relative to control
[26] = test system: Rhynchophorus ferrugineus; test: Pesticidal activity against Rhynchophorus ferrugineus (red palm weevil) cocoon assessed as mortality at 1 ppm administered by dipping for 3 min measured at 18 hr post-treatment relative to control
[27] = test system: Rhynchophorus ferrugineus; test: Pesticidal activity against Rhynchophorus ferrugineus (red palm weevil) cocoon assessed as mortality at 1.5 ppm administered by dipping for 3 min measured at 48 hr post-treatment relative to control
[28] = test system: Rhynchophorus ferrugineus; test: Pesticidal activity against Rhynchophorus ferrugineus (red palm weevil) cocoon assessed as mortality at 1.5 ppm administered by dipping for 3 min measured at 90 hr post-treatment relative to control
[29] = test system: Rhynchophorus ferrugineus; test: Pesticidal activity against adult Rhynchophorus ferrugineus (red palm weevil) assessed as mortality at 100 ppm administered topically at 36 hr post-treatment
[30] = test system: Rhynchophorus ferrugineus; test: Pesticidal activity Rhynchophorus ferrugineus (red palm weevil) larvae assessed as time required after hatching for 100% mortality at 1.5 ml/l administered topically measured up to 14 days relative to control
[31] = test system: Rhynchophorus ferrugineus; test: Pesticidal activity against Rhynchophorus ferrugineus (red palm weevil) larvae infested date palm tree assessed as mortality at 20 ml/4l of water applied through soil-drench irrigation measured after 3 weeks relative to control
[32] = test system: Rhynchophorus ferrugineus; test: Pesticidal activity against adult Rhynchophorus ferrugineus (red palm weevil) assessed as mortality at 1 ppm, po at 18 hr post-treatment relative to control
[33] = test system: Rhynchophorus ferrugineus; test: Pesticidal activity against Rhynchophorus ferrugineus (red palm weevil) larvae assessed as mortality at 0.5 ppm, po at 72 hr post-treatment relative to control
[34] = test system: Rhynchophorus ferrugineus; test: Pesticidal activity against Rhynchophorus ferrugineus (red palm weevil) larvae assessed as mortality at 0.5 ppm, po at 48 hr post-treatment relative to control
[35] = test system: Rhynchophorus ferrugineus; test: Pesticidal activity against Rhynchophorus ferrugineus (red palm weevil) larvae assessed as mortality at 100 ppm administered topically at 72 hr post-treatment
[36] = test system: Rhynchophorus ferrugineus; test: Pesticidal activity against adult Rhynchophorus ferrugineus (red palm weevil) assessed as mortality at 0.5 ppm, po at 114 hr post-treatment relative to control
[37] = test system: Rhynchophorus ferrugineus; test: Contact toxicity against Rhynchophorus ferrugineus (red palm weevil) adults assessed as time required for 50% reversible knockdown at 1.5 ml/l for 5 min
[38] = test system: Rhynchophorus ferrugineus; test: Pesticidal activity against Rhynchophorus ferrugineus (red palm weevil) cocoons assessed as time required for total mortality at 1.5 ml/l administered by dipping for 30 secs
[39] = test system: Rhynchophorus ferrugineus; test: Contact toxicity against Rhynchophorus ferrugineus (red palm weevil) adults assessed as time required for 100% reversible knockdown at 2.5 ml/l for 5 min
[40] = test system: Rhynchophorus ferrugineus; test: Pesticidal activity against Rhynchophorus ferrugineus (red palm weevil) cocoon assessed as mortality at 1.5 ppm administered by dipping for 3 min measured at 72 hr post-treatment relative to control
[41] = test system: Rhynchophorus ferrugineus; test: Pesticidal activity against Rhynchophorus ferrugineus (red palm weevil) larvae assessed as mortality at 2 ppm, po at 114 hr post-treatment relative to control
[42] = test system: Rhynchophorus ferrugineus; test: Pesticidal activity against Rhynchophorus ferrugineus (red palm weevil) larvae assessed as mortality at 1.5 ppm, po at 114 hr post-treatment relative to control

O=[N+]([O-])/N=C1\NCCN1Cc1ccc(Cl)nc1 [IMIDACLOPRID]
Activity [1]: 72.2%
Time [2]: 8.1 days
Activity [3]: 72.2%
Activity [4]: 72.2%
Activity [5]: 0%
Activity [6]: 100%
Time [7]: 9.2 days
Activity [8]: 100%
Activity [9]: 100%
Time [10]: 4.3 days
Activity [11]: 72.2%
Activity [12]: 100%
Time [13]: 3.2 days
Activity [14]: 0%
Time [15]: 1.1 days
Time [16]: 8.1 days
Activity [17]: 0%
Activity [18]: 100%
Activity [19]: 38.9%
Time [20]: 2.1 days
Activity [21]: 0%
Activity [22]: 100%
Activity [23]: 0%
Time [24]: 6.1 days
Activity [25]: 0%
Activity [26]: 0%
Activity [27]: 0%
Activity [28]: 44.4%
Activity [29]: 38.9%
Time [30]: 6 days
Activity [31]: 61.9%
Activity [32]: 38.9%
Activity [33]: 38.9%
Activity [34]: 38.9%
Activity [35]: 0%
Activity [36]: 72.2%
Time [37]: 3.2 days
Time [38]: 9.6 days
Time [39]: 2.2 days
Activity [40]: 0%
Activity [41]: 100%
Activity [42]: 100%
